From US9029370B2, “Substituted benzamide derivatives” (Hoffmann-La Roche Inc., priority 2011, dated 2015)
Where a name gives a salt, the structure may show the parent alone.

Tests used:
[1] = biological target: mouse TAAR1 (Mus musculus (Mouse), UniProt Q923Y8); test: Radioligand binding assay on mouse TAAR1; conditions: mouse TAAR1, HEK-293 membranes; first value of the pair (before the slash); read-out: Ki (μM) mouse/rat
Method: (§1) For the construction of expression plasmids the coding sequences of human, rat and mouse TAAR 1 were amplified from genomic DNA essentially as described by Lindemann et al.. The Expand High Fidelity PCR System (Roche Diagnostics) was used with 1.5 mM Mg^2+ and purified PCR products were cloned into pCR2.1-TOPO cloning vector (Invitrogen) following the instructions of the manufacturer. PCR products were subcloned into the pIRESneo2 vector (BD Clontech, Palo Alto, Calif.), and expression vectors were sequence verified before introduction in cell lines.
(§2) HEK293 cells (ATCC # CRL-1573) were cultured essentially as described by Lindemann et al. (2005). For the generation of stably transfected cell lines HEK293 cells were transfected with the pIRESneo2 expression plasmids containing the TAAR coding sequences (described above) with Lipofectamine 2000 (Invitrogen) according to the instructions of the manufacturer, and 24 hrs post transfection the culture medium was supplemented with 1 mg/ml G418 (Sigma, Buchs, Switzerland). After a culture period of about 10 d clones were isolated, expanded and tested for responsiveness to trace amines (all compounds purchased from Sigma) with the cAMP Biotrak Enzyme immunoassay (EIA) System (Amersham) following the non-acetylation EIA procedure provided by the manufacturer.
Radioligand Binding Assay on Mouse TAAR1
(§3) Membrane Preparation and Radioligand Binding.
(§4) HEK-293 cells stably expressing mouse TAAR1 were maintained at 37° C. and 5% CO2 in DMEM high glucose medium, containing fetal calf serum (10%, heat inactivated for 30 min at 56° C.), penicillin/streptomycin (1%), and 375 μg/ml geneticin (Gibco). Cells were released from culture flasks using trypsin/EDTA, harvested, washed twice with ice-cold PBS (without Ca^2+ and Mg^2+), pelleted at 1′000 rpm for 5 min at 4° C., frozen and stored at −80° C. […] The homogenate was centrifuged at 48′000×g for 30 min at 4° C. Subsequently, the supernatant was removed and discarded, and the pellet resuspended in 20 ml HEPES-NaOH (20 mM, pH 7.4) containing 0.1 mM EDTA using the Polytron (20 s at 14′000 rpm). This procedure was repeated and the final pellet resuspended in HEPES-NaOH containing 0.1 mM EDTA and homogenized using the Polytron. Typically, aliquots of 2 ml membrane portions were stored at −80° C. With each new membrane batch the dissociation constant (Kd) was determined via a saturation curve. […] Nonspecific binding was defined as the amount of ^3[H]-(S)-4-[(ethyl-phenyl-amino)-methyl]-4,5-dihydro-oxazol-2-ylamine bound in the presence of 10 μM unlabeled ligand. All compounds were tested at a broad range of concentrations (10 pM to 10 μM) in duplicates. […] The 96 deep well plates were incubated for 1 hr at 4° C. Incubations were terminated by rapid filtration through Unifilter-96 plates (Packard Instrument Company) and glass filters GF/C (Perkin Elmer) presoaked for 1 hr in polyethylenimine (0.3%) and washed 3 times with 1 ml of cold binding buffer. After addition of 45 μl of Microscint 40 (PerkinElmer) the Unifilter-96 plate was sealed and after 1 hr the ratioactivity counted using a TopCount Microplate Scintillation Counter (Packard Instrument Company).

[2] = biological target: rat TAAR1 (Rattus norvegicus (Rat), UniProt Q923Y9); test: Radioligand binding assay on rat TAAR1; conditions: rat TAAR1, HEK-293 membranes; second value of the pair (line below); read-out: Ki (μM) mouse/rat
Method: as §1, §2
Radioligand Binding Assay on Rat TAAR1
as §3
as §4, with “rat” for “mouse”

Chain of mouse TAAR1 (Q923Y8 whole entry): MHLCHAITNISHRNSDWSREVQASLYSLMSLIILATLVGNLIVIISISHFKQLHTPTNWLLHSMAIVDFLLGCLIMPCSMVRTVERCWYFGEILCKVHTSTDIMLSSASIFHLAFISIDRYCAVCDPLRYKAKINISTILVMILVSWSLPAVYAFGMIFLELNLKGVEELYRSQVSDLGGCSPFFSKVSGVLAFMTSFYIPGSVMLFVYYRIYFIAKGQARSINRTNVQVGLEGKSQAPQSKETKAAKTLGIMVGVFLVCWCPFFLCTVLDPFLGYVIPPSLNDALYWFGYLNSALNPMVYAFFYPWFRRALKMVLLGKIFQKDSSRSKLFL
Chain of rat TAAR1 (Q923Y9 whole entry): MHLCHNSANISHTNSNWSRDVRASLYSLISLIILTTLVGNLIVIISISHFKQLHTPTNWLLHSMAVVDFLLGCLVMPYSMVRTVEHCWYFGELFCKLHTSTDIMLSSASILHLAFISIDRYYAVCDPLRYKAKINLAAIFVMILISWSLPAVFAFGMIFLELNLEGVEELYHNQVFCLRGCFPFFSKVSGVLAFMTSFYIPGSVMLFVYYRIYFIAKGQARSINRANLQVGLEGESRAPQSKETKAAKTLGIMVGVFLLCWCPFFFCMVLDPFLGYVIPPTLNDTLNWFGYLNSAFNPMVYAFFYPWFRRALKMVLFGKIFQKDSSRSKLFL

SMILES: O=C(Nc1ccc([C@@H]2CNCCO2)cc1F)c1cnn(-c2ccc(F)cc2)c1 [Example 21, (R)—N-(2-fluoro-4-(morpholin-2-yl)phenyl)-1-(4-fluorophenyl)-1H-pyrazole-4-carboxamide]
- Ki [1]: 0.0032 µM
- Ki [2]: 0.0022 µM

SMILES: O=C(Nc1ccc([C@@H]2CNCCO2)cc1Cl)c1ccn(-c2ccc(F)cc2)n1 [Example 30, (R)—N-(2-Chloro-4-(morpholin-2-yl)phenyl)-1-(4-fluorophenyl)-1H-pyrazole-3-carboxamide]
- Ki [1]: 0.032 µM
- Ki [2]: 0.0012 µM

SMILES: O=C(Nc1ccc(Cl)cn1)Nc1ccc([C@@H]2CNCCO2)cc1Cl [Example 55, (R)-1-(2-Chloro-4-(morpholin-2-yl)phenyl)-3-(5-chloropyridin-2-yl)urea]
- Ki [1]: 0.0012 µM
- Ki [2]: 0.0014 µM

SMILES: Cn1nc(-c2ccccc2)cc1C(=O)Nc1ccc([C@@H]2CNCCO2)cc1F [Example 23, 2-Methyl-5-phenyl-2H-pyrazole-3-carboxylic acid ((R)-2-fluoro-4-morpholin-2-yl-phenyl)-amide]
- Ki [1]: 0.0254 µM
- Ki [2]: 0.0033 µM

SMILES: O=C(Nc1ccc([C@H]2CNCCO2)cc1Cl)c1ccn(-c2ccc(F)cc2)n1 [Example 29, (S)—N-(2-Chloro-4-(morpholin-2-yl)phenyl)-1-(4-fluorophenyl)-1H-pyrazole-3-carboxamide]
- Ki [1]: 0.0017 µM
- Ki [2]: 0.0036 µM

SMILES: O=C(Nc1ccc(Cl)cn1)Nc1ccc([C@H]2CNCCO2)cc1Cl [Example 64, (S)-1-(2-Chloro-4-(morpholin-2-yl)phenyl)-3-(5-chloropyridin-2-yl)urea]
- Ki [1]: 0.0015 µM
- Ki [2]: 0.003 µM

SMILES: N#Cc1ccc(OC(F)F)c(NC(=O)Nc2ccc([C@@H]3CNCCO3)cc2Cl)c1 [Example 47, (R)-1-(2-Chloro-4-(morpholin-2-yl)phenyl)-3-(5-cyano-2-(difluoromethoxy)phenyl)urea]
- Ki [1]: 0.002 µM
- Ki [2]: 0.0012 µM

SMILES: O=C(Nc1ccc(C(F)(F)F)cn1)Nc1ccc([C@H]2CNCCO2)cc1Cl [Example 53, (S)-1-(2-Chloro-4-(morpholin-2-yl)phenyl)-3-(5-(trifluoromethyl)pyridin-2-yl)urea]
- Ki [1]: 0.0015 µM
- Ki [2]: 0.0017 µM

SMILES: N#Cc1cccc(NC(=O)Nc2ccc([C@@H]3CNCCO3)cc2F)c1F [Example 62, (R)-1-(3-Cyano-2-fluorophenyl)-3-(2-fluoro-4-(morpholin-2-yl)phenyl)urea]
- Ki [1]: 0.0031 µM
- Ki [2]: 0.0028 µM

SMILES: N#Cc1ccnc(C(=O)Nc2ccc([C@H]3CNCCO3)cc2F)c1 [Example 79, (S)-4-Cyano-N-(2-fluoro-4-(morpholin-2-yl)phenyl)picolinamide hydrochloride]
- Ki [1]: 0.0022 µM
- Ki [2]: 0.196 µM

SMILES: O=C(Nc1ccc([C@@H]2CNCCO2)cc1F)c1n[nH]c2cc(F)ccc12 [Example 1, 6-Fluoro-1H-indazole-3-carboxylic acid ((R)-2-fluoro-4-morpholin-2-yl-phenyl)-amide]
- Ki [1]: 0.001 µM
- Ki [2]: 0.0051 µM

SMILES: O=C(Nc1ccc([C@H]2CNCCO2)c(F)c1)c1cnc(C(F)(F)F)cn1 [Example 137, (S)—N-(3-Fluoro-4-(morpholin-2-yl)phenyl)-5-(trifluoromethyl)pyrazine-2-carboxamide hydrochloride]
- Ki [1]: 0.0067 µM
- Ki [2]: 0.0301 µM

SMILES: N#Cc1ccc(-n2cc(C(=O)Nc3ccc([C@H]4CNCCO4)cc3Cl)cn2)cc1 [Example 103, (S)—N-(2-Chloro-4-(morpholin-2-yl)phenyl)-1-(4-cyanophenyl)-1H-pyrazole-4-carboxamide hydrochloride]
- Ki [1]: 0.0052 µM
- Ki [2]: 0.0031 µM

SMILES: O=C(Nc1ccc([C@H]2CNCCO2)cc1F)c1ccn(-c2ccc(F)cc2)n1 [Example 13, 1-(4-Fluoro-phenyl)-1H-pyrazole-3-carboxylic acid ((S)-2-fluoro-4-morpholin-2-yl-phenyl)-amide]
- Ki [1]: 0.0011 µM
- Ki [2]: 0.0024 µM

SMILES: O=C(Nc1ccc(C(F)(F)F)nc1)Nc1ccc([C@@H]2CNCCO2)cc1Cl [Example 49, (R)-1-(2-Chloro-4-(morpholin-2-yl)phenyl)-3-(6-(trifluoromethyl)pyridin-3-yl)urea]
- Ki [1]: 0.0021 µM
- Ki [2]: 0.0015 µM

SMILES: Cc1cc(C(=O)Nc2ccc([C@H]3CNCCO3)cc2F)cc(C(N)=O)n1 [Example 119, (S)—N4-(2-Fluoro-4-(morpholin-2-yl)phenyl)-6-methylpyridine-2,4-dicarboxamide hydrochloride]
- Ki [1]: 0.0844 µM
- Ki [2]: 0.687 µM

SMILES: O=C(Nc1ccc(Cl)nc1)Nc1ccc([C@@H]2CNCCO2)cc1F [Example 8, 1-(6-Chloro-pyridin-3-yl)-3-((R)-2-fluoro-4-morpholin-2-yl-phenyl)-urea]
- Ki [1]: 0.0026 µM
- Ki [2]: 0.0039 µM

SMILES: O=C(Nc1ccc([C@H]2CNCCO2)cc1F)c1cnn(-c2ccc3c(c2)OC(F)(F)O3)c1 [Example 82, (S)-1-(2,2-Difluorobenzo[d][1,3]dioxol-5-yl)-N-(2-fluoro-4-(morpholin-2-yl)phenyl)-1H-pyrazole-4-carboxamide]
- Ki [1]: 0.0013 µM
- Ki [2]: 0.0016 µM

SMILES: Cc1cc(C(=O)Nc2ccc([C@H]3CNCCO3)c(F)c2)cc(C#N)n1 [Example 115, (S)-2-Cyano-N-(3-fluoro-4-(morpholin-2-yl)phenyl)-6-methylisonicotinamide hydrochloride]
- Ki [1]: 0.029 µM
- Ki [2]: 0.0343 µM

SMILES: CCOc1ccc(C(=O)Nc2ccc([C@H]3CNCCO3)cc2F)cn1 [Example 138, (S)-6-Ethoxy-N-(2-fluoro-4-(morpholin-2-yl)phenyl)nicotinamide]
- Ki [1]: 0.0042 µM
- Ki [2]: 0.308 µM

SMILES: CCOc1cc(C(=O)Nc2ccc([C@H]3CNCCO3)c(Cl)c2)ccn1 [Example 94, (S)—N-(3-Chloro-4-(morpholin-2-yl)phenyl)-2-ethoxyisonicotinamide hydrochloride]
- Ki [1]: 0.0033 µM
- Ki [2]: 0.0381 µM

SMILES: CCOc1ccc(C(=O)Nc2ccc([C@@H]3CNCCO3)c(F)c2)cn1 [Example 85, (R)-6-Ethoxy-N-(3-fluoro-4-(morpholin-2-yl)phenyl)nicotinamide hydrochloride]
- Ki [1]: 0.0033 µM
- Ki [2]: 0.0067 µM

SMILES: O=C(Nc1ccc([C@@H]2CNCCO2)c(F)c1)c1ccnc(C(F)(F)F)c1 [Example 83, (R)—N-(3-Fluoro-4-(morpholin-2-yl)phenyl)-2-(trifluoromethyl)isonicotinamide hydrochloride]
- Ki [1]: 0.006 µM
- Ki [2]: 0.0075 µM

SMILES: O=C(Nc1ccc([C@@H]2CNCCO2)c(F)c1)c1cnn(-c2ccc(OC(F)F)cc2)c1 [Example 86, (R)-1-(4-(Difluoromethoxy)phenyl)-N-(3-fluoro-4-(morpholin-2-yl)phenyl)-1H-pyrazole-4-carboxamide hydrochloride]
- Ki [1]: 0.0023 µM
- Ki [2]: 0.0007 µM
